From patent US20220088127A1, “TARGETING THE BAG FAMILY FOR THE TREATMENT OF NEURODEGENERATIVE DISEASE” (Temple University - of the Commonwealth System of Higher …, priority 2019, published 2022)
Peptide text beside a SMILES is read from it. * marks the point of attachment. Cbz = O=C(OCc1ccccc1)*

System: BAG3
Assay: BAG3 protein level by Western blot
Format: cell-based, rat
Experimental: Dissociated cell cultures of hippocampal and cortical neurons were prepared using dissected E18 prenatal rat embryonic brains. After digestion in 0.25% trypsin solution, neurons were plated on tissue culture plates and slides pre-coated with poly-D-lysine (Sigma, St. Louis, Mo.) and laminin (Invitrogen 23017, USA). Cells were maintained 14 days prior to treatments. Neurons were transduced with Ad-Null (Vector Biolabs, Malvern, Pa.), Ad-Tat (made in-house), Ad-siBAG3 (Vector Biolabs, Malvern, Pa.) and Ad-BAG3 (Vector Biolabs, Malvern, Pa.) with MOI 1 to 4 or recombinant Tat protein (50 ng/ml, full length, 101 amino acids, Immunodiagnostics, MA). Tat bioactivity was verified by the LTR-luciferase assay. MG132 (5 μM) and Bafilomycin A 1 (50 nM, Sigma) were applied for 4 h prior to lysis to block proteasome and lysosomal autophagy, respectively.
Neuronal and mouse brain tissue lysates were prepared using RIPA lysis buffer (whole cell extract), Tris-Triton (soluble fraction) or 2% SDS in PBS (insoluble fraction), all containing protease inhibitor cocktail (Sigma-Aldrich, St. Louis, Mo.). Protein concentration was measured using Bio-Rad protein assay reagent (Bio-Rad, Hercules, Calif.). SDS-polyacrylamide gels, 10-12%, and nitrocellulose membranes (LI-COR, Inc., Lincoln, Nebr.) were used for electrophoretic protein separation and transfer, respectively. […]

CO/C1=C\C(C)=C\[C@@H](C)[C@@H](O)[C@@H](C)C/C(C)=C/C=C/[C@H](OC)[C@@H]([C@@H](C)[C@@H](O)[C@H](C)[C@@]2(O)C[C@@H](O)[C@H](C)[C@@H](C(C)C)O2)OC1=O [Baf A1, Bafilomycin A1]
BAG3 levels in Tat-expressing neurons under lysosomal inhibition (Bafilomycin A1): no significant changes

CC(C)C[C@@H](C=O)NC(=O)[C@H](CC(C)C)NC(=O)[C@H](CC(C)C)NC(=O)OCc1ccccc1 [MG132] (Cbz-Leu-Leu-Leu-aldehyde)
BAG3 levels in Tat-expressing neurons under proteasome inhibition (MG132 for 4 h on day 3 post-transduction): not altered
